Laboratory results from ChEMBL document CHEMBL3880382, “TRH-like peptide derivatives as inhibitors of the TRH-degrading ectoenzyme” (2010).
Non-standard residues stand in square brackets, D forms with d. Residues, ends and D or L forms follow the SMILES beside them. hPhe = N[C@@H](CCc1ccccc1)C(=O)O; 2Thi = N[C@@H](Cc1cccs1)C(=O)O; pGlu = O=C1CC[C@@H](C(=O)O)N1; Phg = N[C@H](C(=O)O)c1ccccc1; Pip = O=C(O)[C@@H]1CCCCN1; Nva = CCC[C@H](N)C(=O)O

Columns and labels:
[1] = target: T1, Thyrotropin releasing hormone degrading enzyme (Sus scrofa) (UniProt A0A287AP33); experiment: Substrate activity at pig brain TRH-DE assessed as rate of hydrolysis at 1 mM incubated for 18 hrs by HPLC analysis
[2] = target: T1, Thyrotropin releasing hormone degrading enzyme (Sus scrofa); experiment: Substrate activity at pig brain TRH-DE assessed as Vmax to Km ratio
[3] = target: T1, Thyrotropin releasing hormone degrading enzyme (Sus scrofa); experiment: Inhibition of pig brain TRH-DE at 1 mM using Glp-His-ProAMC as substrate by DPP-4-based continuous fluorometric method
[4] = substrate: NC(=O)[C@@H]1CCCN1C(=O)[C@H](Cc1c[nH]cn1)NC(=O)[C@@H]1CCC(=O)N1; experiment: (§1) Substrate activity at pig brain TRH-DE assessed as Km by discontinuous fluorometric method; conditions: Sus scrofa
[5] = substrate: O=C1CC[C@@H](C(=O)N[C@@H](Cc2cnc[nH]2)C(=O)N2CCC[C@H]2C(=O)O)N1; experiment: as §1; conditions: Sus scrofa
[6] = substrate: Cc1cc(=O)oc2cc(NC(=O)[C@@H]3CCCN3C(=O)[C@H](Cc3cnc[nH]3)NC(=O)[C@@H]3CCC(=O)N3)ccc12; experiment: as §1; conditions: Sus scrofa
[7] = substrate: NC(=O)[C@@H]1CCCN1C(=O)[C@H](Cc1ccccc1)NC(=O)[C@@H]1CCC(=O)N1; experiment: as §1; conditions: Sus scrofa
[8] = substrate: NC(=O)[C@@H]1CCCN1C(=O)[C@H](Cc1ccc(O)cc1)NC(=O)[C@@H]1CCC(=O)N1; experiment: as §1; conditions: Sus scrofa
[9] = substrate: NC(=O)[C@@H]1CCCN1C(=O)[C@H](Cc1cccs1)NC(=O)[C@@H]1CCC(=O)N1; experiment: as §1; conditions: Sus scrofa
[10] = substrate: NC(=O)[C@@H]1CCCN1C(=O)[C@H](Cc1c[nH]cn1)NC(=O)[C@@H]1CCC(=O)N1; experiment: (§2) Substrate activity at pig brain TRH-DE assessed as Vmax after 18 hrs by HPLC analysis; conditions: Sus scrofa
[11] = substrate: O=C1CC[C@@H](C(=O)N[C@@H](Cc2cnc[nH]2)C(=O)N2CCC[C@H]2C(=O)O)N1; experiment: as §2; conditions: Sus scrofa
[12] = substrate: Cc1cc(=O)oc2cc(NC(=O)[C@@H]3CCCN3C(=O)[C@H](Cc3cnc[nH]3)NC(=O)[C@@H]3CCC(=O)N3)ccc12; experiment: as §2; conditions: Sus scrofa
[13] = substrate: NC(=O)[C@@H]1CCCN1C(=O)[C@H](Cc1ccccc1)NC(=O)[C@@H]1CCC(=O)N1; experiment: as §2; conditions: Sus scrofa
[14] = substrate: NC(=O)[C@@H]1CCCN1C(=O)[C@H](Cc1ccc(O)cc1)NC(=O)[C@@H]1CCC(=O)N1; experiment: as §2; conditions: Sus scrofa
[15] = substrate: NC(=O)[C@@H]1CCCN1C(=O)[C@H](Cc1cccs1)NC(=O)[C@@H]1CCC(=O)N1; experiment: as §2; conditions: Sus scrofa

CC(C)C[C@H](NC(=O)[C@@H]1CCC(=O)N1)C(=O)N1CCC[C@H]1C(N)=O ([pGlu]-Leu-Pro-NH2)
Activity [1]: 0.14 U/mg

NCCCC[C@H](NC(=O)[C@@H]1CCC(=O)N1)C(=O)N1CCC[C@H]1C(N)=O ([pGlu]-Lys-Pro-NH2)
Activity [1]: 0.46 U/mg

CSCC[C@H](NC(=O)[C@@H]1CCC(=O)N1)C(=O)N1CCC[C@H]1C(N)=O ([pGlu]-Met-Pro-NH2)
Activity [1]: 0.21 U/mg

NC(=O)[C@@H]1CCCN1C(=O)[C@H](Cc1ccccc1)NC(=O)[C@@H]1CCC(=O)N1 ([pGlu]-Phe-Pro-NH2)
Vmax/Km [2]: 0.03 U/mg/µM
Activity [1]: 1.56 U/mg

NC(=O)[C@@H]1CCCN1C(=O)[C@@H]1CCCN1C(=O)[C@@H]1CCC(=O)N1 ([pGlu]-Pro-Pro-NH2)
inhibition [3]: 3%

NC(=O)[C@@H]1CCCN1C(=O)[C@H](CO)NC(=O)[C@@H]1CCC(=O)N1 ([pGlu]-Ser-Pro-NH2)
Activity [1]: 0.05 U/mg

C[C@@H](O)[C@H](NC(=O)[C@@H]1CCC(=O)N1)C(=O)N1CCC[C@H]1C(N)=O ([pGlu]-Thr-Pro-NH2)
Activity [1]: 0.14 U/mg

NC(=O)[C@@H]1CCCN1C(=O)[C@H](Cc1c[nH]c2ccccc12)NC(=O)[C@@H]1CCC(=O)N1 ([pGlu]-Trp-Pro-NH2)
inhibition [3]: 71%

NC(=O)[C@@H]1CCCN1C(=O)[C@H](Cc1ccc(O)cc1)NC(=O)[C@@H]1CCC(=O)N1 ([pGlu]-Tyr-Pro-NH2)
Vmax/Km [2]: 0.05 U/mg/µM
Activity [1]: 0.66 U/mg

CC(C)[C@H](NC(=O)[C@@H]1CCC(=O)N1)C(=O)N1CCC[C@H]1C(N)=O ([pGlu]-Val-Pro-NH2)
Activity [1]: 0.05 U/mg

NC(=O)[C@@H]1CCCN1C(=O)[C@H](Cc1cccs1)NC(=O)[C@@H]1CCC(=O)N1 ([pGlu]-[2Thi]-Pro-NH2)
Vmax/Km [2]: 0.06 U/mg/µM
Activity [1]: 2.12 U/mg

CCC[C@H](NC(=O)[C@@H]1CCC(=O)N1)C(=O)N1CCC[C@H]1C(N)=O ([pGlu]-[Nva]-Pro-NH2)
Activity [1]: 0.04 U/mg

NC(=O)[C@@H]1CCCN1C(=O)[C@@H](NC(=O)[C@@H]1CCC(=O)N1)c1ccccc1 ([pGlu]-[Phg]-Pro-NH2)
inhibition [3]: 57%

NC(=O)[C@@H]1CCCN1C(=O)[C@@H]1CCCCN1C(=O)[C@@H]1CCC(=O)N1 ([pGlu]-[Pip]-Pro-NH2)
inhibition [3]: 40%

NC(=O)C[C@@H](NC(=O)[C@@H]1CCC(=O)N1)C(=O)N1CCC[C@H]1C(N)=O ([pGlu]-[dN]-Pro-NH2)
inhibition [3]: 2%

NC(=O)[C@@H]1CCCN1C(=O)[C@H](CCc1ccccc1)NC(=O)[C@@H]1CCC(=O)N1 ([pGlu]-[hPhe]-Pro-NH2)
Activity [1]: 0.05 U/mg

B1: Thyrotropin releasing hormone degrading enzyme (Sus scrofa), A0A287AP33 (protein)
chain: MALDGERGEQEEEKKKKKKKKKRKKKKEEEGAKKSSSPFVATMGENDAALRAGGRGLSDPWADSVGVRPRTTERHITVHKRLVLAFAVSIVALLAVTMLAVLLSLRFDECGASIPPGADGGPAGFPARGGNESLPGSSRRDHHAGGDSSQPGAGREDTPETPSAQPPSEEEQEQWQPWTQLRLSGHLKPLHYNLMLTAFMENFTFSGEVNVEIACRNATRYVVLHASRVAVEKVQVAEDRVAGAVPVAGFFLYPQTQVLVVVLNRTLDAQRNYNLKIIYNALIENELLGFFRSSYVLHGERRFLGVTQFSPTHARKAFPCFDEPIYKATFKISIKHQATYLSLSNMPVETSVFEEDGWVTDHFSQTPLMSTYYLAWAICNFTYRETTTKSGVVVRLYARPDAIRRGSGDYALHITKRLIEFYEDYFKVPYSLPKLDLLAVPKHPYAAMENWGLSIFVEQRILLDPSVSSISYLLDVTMVIVHEICHQWFGDLVTPVWWEDVWLKEGFAHYFEFVGTDYLYPGWNMEKQRFLTDVLHEVMLLDGLASSHPVSQEVLRATDIDRVFDWIAYKKGAALIRMLANFMGHSVFQRGLQDYLTIHKYGNAARNDLWNTLSEALKRNGKYVNIQEVMDQWTLQMGYPVITIFGNTTAENRIIITQQHFIYDISAKAKPHELQNSSYLWQIPLTIVVGNRSHVSSEAIIWVSNKTEHHRITSLNKGSWLLGNINQTGYFRVNYDLRNWRLLIDQLIRNHEVLSVSNRAGLIDDAFSLARAGYLPQNIPLEIIRYLSEEKDFLPWHAASRALYPLDKLLDRMEKYNVFNEYILKQVATTYIKLGWPKNNFNGSLVQASYQHEELRREVIMLACSFGNKHCHQQASTLISDWISSNRNRIPLNVRDIVYCTGVSLLDEDVWEFIWMKFHSTTAISEKKILLEALTCSDDRNLLNRLLNLSLNSEVVLDQDAIDVIIHVARNPHGRDLAWKFFRDKWKILNTRYGEALFMNSKLISGVTEFLNTEGELKELKNFMKSYDGVAAASFSRAVETVEANVRWKMLYQDELFQWLGKALRH
Km [4]: 35 µM
Km [5]: 311 µM
Km [6]: 3.1 µM
Km [7]: 55 µM
Km [8]: 15 µM
Km [9]: 34 µM
Vmax [10]: 2.63 U/mg
Vmax [11]: 4.43 U/mg
Vmax [12]: 0.11 U/mg
Vmax [13]: 1.64 U/mg
Vmax [14]: 0.67 U/mg
Vmax [15]: 2.19 U/mg
